Source: US12629371B2, “Compositions and methods for inhibiting kinases” (Inhibikase Therapeutics, Inc., priority 2016, dated 2026)
Read-outs that look alike come from different tables or passages of the source. Blank lines part the entries; values can stand above or below the molecule they belong to.

Tests used:
ARG/Abl2 = ARG/Abl2 (Homo sapiens, UniProt P42684); assay: Inhibition profile at 500 nM: ARG/Abl2; format: biochemical; conditions: 500 nM test compound
Description: (§1) Then enzyme substrate is added as 10 μl of 2.5×FAM-labeled peptide+ATP solution to each well of the 384-well assay plate The reaction is allowed to proceed at 28° C. and quenched with the addition of 25 μl of stop buffer. The release of fluorescent FAM is quantitated as Percent inhibition=(max−conversion)/(max−min)*100.sp; “max” stands for DMSO control; “min” stands for low control. Convert conversion values to inhibition values. Percent inhibition=(max−conversion)/(max−min)*100. “max” stands for DMSO control; “min” stands for low control.

SRC = SRC (Homo sapiens, UniProt P12931); assay: Inhibition profile at 500 nM: SRC; format: biochemical; conditions: 500 nM test compound, read-out: Percent inhibition SRC
Description: as §1

FGR = FGR (Homo sapiens, UniProt P09769); assay: Inhibition profile at 500 nM: FGR; format: biochemical; conditions: 500 nM test compound, read-out: Percent inhibition FGR
Chain of FGR (P09769 whole entry): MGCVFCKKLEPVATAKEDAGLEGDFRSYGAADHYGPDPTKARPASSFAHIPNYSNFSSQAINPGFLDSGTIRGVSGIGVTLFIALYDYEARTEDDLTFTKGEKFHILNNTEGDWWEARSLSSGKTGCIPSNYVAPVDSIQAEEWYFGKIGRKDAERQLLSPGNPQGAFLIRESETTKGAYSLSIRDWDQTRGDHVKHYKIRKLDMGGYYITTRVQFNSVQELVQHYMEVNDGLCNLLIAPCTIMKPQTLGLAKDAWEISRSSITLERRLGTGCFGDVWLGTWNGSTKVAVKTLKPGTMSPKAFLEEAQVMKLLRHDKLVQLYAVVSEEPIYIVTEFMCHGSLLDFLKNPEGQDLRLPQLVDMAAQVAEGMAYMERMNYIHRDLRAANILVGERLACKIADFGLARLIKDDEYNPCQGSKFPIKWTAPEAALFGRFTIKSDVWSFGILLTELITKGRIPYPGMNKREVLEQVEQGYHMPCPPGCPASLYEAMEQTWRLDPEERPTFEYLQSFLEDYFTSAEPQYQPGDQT
Description: as §1

FLT3 = FLT3 (Homo sapiens, UniProt P36888); assay: Inhibition profile at 500 nM: FLT3; format: biochemical; conditions: 500 nM test compound, read-out: Percent inhibition FLT3
Description: as §1

JNK2 = JNK2 (Homo sapiens, UniProt P45984); assay: Inhibition profile at 500 nM: JNK2; format: biochemical; conditions: 500 nM test compound, read-out: Percent inhibition JNK2
Chain of JNK2 (P45984 whole entry): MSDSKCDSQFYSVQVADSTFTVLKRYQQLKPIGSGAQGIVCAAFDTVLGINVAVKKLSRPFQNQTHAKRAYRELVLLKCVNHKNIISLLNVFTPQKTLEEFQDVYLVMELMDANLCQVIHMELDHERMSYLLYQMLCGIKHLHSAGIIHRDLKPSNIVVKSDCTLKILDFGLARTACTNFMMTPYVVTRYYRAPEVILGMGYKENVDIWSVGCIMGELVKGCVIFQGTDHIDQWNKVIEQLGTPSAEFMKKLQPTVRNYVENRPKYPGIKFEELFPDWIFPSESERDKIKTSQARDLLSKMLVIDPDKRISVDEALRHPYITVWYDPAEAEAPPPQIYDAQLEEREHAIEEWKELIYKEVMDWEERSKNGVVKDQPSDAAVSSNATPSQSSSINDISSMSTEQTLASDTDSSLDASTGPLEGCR
Description: as §1

PDGFRb = PDGFRb (Homo sapiens, UniProt P09619); assay: Inhibition profile at 500 nM: PDGFRb; format: biochemical; conditions: 500 nM test compound, read-out: Percent inhibition PDGFRb
Description: as §1

FYN = FYN (Homo sapiens, UniProt P06241); assay: Inhibition profile at 500 nM: FYN; format: biochemical; conditions: 500 nM test compound, read-out: Percent inhibition FYN
Chain of FYN (P06241 whole entry): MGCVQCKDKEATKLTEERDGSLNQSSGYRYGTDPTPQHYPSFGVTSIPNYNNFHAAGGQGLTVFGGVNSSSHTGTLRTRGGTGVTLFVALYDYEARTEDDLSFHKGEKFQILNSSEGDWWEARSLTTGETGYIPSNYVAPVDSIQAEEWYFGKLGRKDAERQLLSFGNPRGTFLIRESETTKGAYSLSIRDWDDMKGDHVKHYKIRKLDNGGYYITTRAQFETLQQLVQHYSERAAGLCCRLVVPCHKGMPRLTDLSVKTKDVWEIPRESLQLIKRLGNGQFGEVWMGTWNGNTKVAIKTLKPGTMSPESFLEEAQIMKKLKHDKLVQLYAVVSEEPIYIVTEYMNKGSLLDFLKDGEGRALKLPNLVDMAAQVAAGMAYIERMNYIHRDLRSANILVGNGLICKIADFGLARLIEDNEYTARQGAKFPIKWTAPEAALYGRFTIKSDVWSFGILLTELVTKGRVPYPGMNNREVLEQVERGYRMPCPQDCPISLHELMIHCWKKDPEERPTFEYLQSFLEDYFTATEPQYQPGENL
Description: as §1

KIT = KIT (Homo sapiens, UniProt P10721); assay: Inhibition profile at 500 nM: KIT; format: biochemical; conditions: 500 nM test compound; Table 1; read-out: Percent inhibition KIT
Description: as §1

ABL = ABL (Homo sapiens, UniProt P00519); assay: Inhibition profile at 500 nM: ABL / Abl1; format: biochemical; conditions: 500 nM test compound; Table 1; read-out: Percent inhibition ABL
Description: as §1

LCK = LCK (Homo sapiens, UniProt P06239); assay: Inhibition profile at 500 nM: LCK; format: biochemical; conditions: 500 nM test compound, read-out: Percent inhibition LCK
Chain of LCK (P06239 whole entry): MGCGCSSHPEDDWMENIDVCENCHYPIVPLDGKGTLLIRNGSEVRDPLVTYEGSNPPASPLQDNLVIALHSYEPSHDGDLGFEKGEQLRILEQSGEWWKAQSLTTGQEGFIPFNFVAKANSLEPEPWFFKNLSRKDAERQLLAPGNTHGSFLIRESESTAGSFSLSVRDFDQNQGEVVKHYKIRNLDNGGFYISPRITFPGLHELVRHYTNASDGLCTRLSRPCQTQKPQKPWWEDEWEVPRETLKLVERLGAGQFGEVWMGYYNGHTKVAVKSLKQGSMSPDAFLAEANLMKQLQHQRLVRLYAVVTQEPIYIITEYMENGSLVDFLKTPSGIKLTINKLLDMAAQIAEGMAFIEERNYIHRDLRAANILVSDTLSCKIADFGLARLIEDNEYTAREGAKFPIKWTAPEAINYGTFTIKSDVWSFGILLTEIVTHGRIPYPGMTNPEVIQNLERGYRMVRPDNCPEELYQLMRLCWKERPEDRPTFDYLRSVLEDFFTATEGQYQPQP
Description: as §1

LYNA = LYNA (Homo sapiens, UniProt P07948); assay: Inhibition profile at 500 nM: LYNA; format: biochemical; conditions: 500 nM test compound, read-out: Percent inhibition LYNA
Chain of LYNA (P07948 whole entry): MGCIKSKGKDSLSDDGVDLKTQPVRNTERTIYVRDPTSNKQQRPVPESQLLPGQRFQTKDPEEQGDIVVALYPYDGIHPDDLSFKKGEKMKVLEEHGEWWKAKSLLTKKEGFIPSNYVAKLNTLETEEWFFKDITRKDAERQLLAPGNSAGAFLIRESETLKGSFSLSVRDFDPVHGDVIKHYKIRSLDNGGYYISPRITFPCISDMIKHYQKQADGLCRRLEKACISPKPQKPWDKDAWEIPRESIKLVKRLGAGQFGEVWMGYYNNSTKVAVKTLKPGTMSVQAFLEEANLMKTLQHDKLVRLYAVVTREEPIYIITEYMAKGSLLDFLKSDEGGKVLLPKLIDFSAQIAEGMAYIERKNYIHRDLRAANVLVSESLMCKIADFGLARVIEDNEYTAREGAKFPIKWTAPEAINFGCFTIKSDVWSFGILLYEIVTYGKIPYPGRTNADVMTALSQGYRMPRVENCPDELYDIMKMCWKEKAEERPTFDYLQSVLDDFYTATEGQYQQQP
Description: as §1

FES = FES (Homo sapiens, UniProt P07332); assay: Inhibition profile at 500 nM: FES; format: biochemical; conditions: 500 nM test compound, read-out: Percent inhibition FES
Description: as §1

PDGFRa = PDGFRa (Homo sapiens, UniProt P16234); assay: Inhibition profile at 500 nM: PDGFRa; format: biochemical; conditions: 500 nM test compound, read-out: Percent inhibition PDGFRa
Chain of PDGFRa (P16234 24-1089): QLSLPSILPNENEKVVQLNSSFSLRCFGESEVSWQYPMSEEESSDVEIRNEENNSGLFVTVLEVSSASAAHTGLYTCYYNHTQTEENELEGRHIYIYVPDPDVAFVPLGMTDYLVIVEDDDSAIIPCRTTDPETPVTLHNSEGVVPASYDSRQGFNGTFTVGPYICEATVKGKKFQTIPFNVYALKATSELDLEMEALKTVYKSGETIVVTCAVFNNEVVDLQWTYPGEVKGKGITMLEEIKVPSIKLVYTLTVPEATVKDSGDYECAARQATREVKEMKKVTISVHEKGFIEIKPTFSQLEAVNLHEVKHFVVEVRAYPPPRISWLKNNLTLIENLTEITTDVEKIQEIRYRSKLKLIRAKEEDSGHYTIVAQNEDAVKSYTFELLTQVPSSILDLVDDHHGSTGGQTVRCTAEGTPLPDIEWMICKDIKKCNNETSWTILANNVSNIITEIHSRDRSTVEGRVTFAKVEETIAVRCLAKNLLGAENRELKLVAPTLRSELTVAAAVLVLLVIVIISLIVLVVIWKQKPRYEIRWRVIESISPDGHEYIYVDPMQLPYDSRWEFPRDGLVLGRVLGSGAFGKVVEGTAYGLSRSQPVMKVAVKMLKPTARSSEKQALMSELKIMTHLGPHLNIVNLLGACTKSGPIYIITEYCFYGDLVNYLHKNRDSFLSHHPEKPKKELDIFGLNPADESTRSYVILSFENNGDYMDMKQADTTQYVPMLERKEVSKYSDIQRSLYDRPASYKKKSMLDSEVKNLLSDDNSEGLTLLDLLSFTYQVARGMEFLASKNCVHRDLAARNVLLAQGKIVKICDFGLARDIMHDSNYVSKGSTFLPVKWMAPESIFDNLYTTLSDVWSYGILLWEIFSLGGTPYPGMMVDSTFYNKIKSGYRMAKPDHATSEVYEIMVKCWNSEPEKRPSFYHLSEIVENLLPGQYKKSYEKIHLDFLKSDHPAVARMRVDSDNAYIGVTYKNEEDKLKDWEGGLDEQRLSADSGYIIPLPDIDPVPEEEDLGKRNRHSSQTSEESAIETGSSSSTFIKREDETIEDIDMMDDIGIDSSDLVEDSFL
Description: as §1

[1] = Human liver microsome stability; format: in vitro ADME; conditions: human liver microsomes; read-out: Human liver microsome t1/2
Serum protein binding = format: in vitro ADME; conditions: rat
mice treated with MPTP [2] = assay: Mouse MPTP neurotoxicity model; format: in vivo; conditions: for dopamine levels (protection of dopamine-secreting neurons): HPLC-ECD, FIG. 4; for pole test latency: day 14, FIG. 3, control about 5 seconds, MPTP about 30
Description: Certain compounds of the present invention were evaluated using the MPTP neurotoxicity model. MPTP causes oxidative stress, which in turn causes c-Abl1 and/or c-Abl2 phosphorylation in the SNpc of mice treated with MPTP. MPTP administration according to this model produces a reliable, irreversible loss of DA neurons 7 days after the last injection, similar to that observed in PD. MPTP causes greater loss of DA neurons in SNpc and degeneration of DA nerve terminals in the caudate putamen. Many of the cell death signaling events observed in PD postmortem tissue are present in the MPTP model including oxidative stress, nitrosative stress, c-Abl activation, Parkin inactivation and PARIS and AIMP2 elevation and PARP activation. […] Because the model is relatively rapid, this model was used to assess dosing for future studies, and as a preliminary measure of efficacy.
The study design is depicted in FIG. 1. […] Wild type mice (n=5 per group) were divided into 4 treatment groups as follows: saline, MPTP, Drug and MPTP+Drug. Saline and MPTP groups were pre-treated with drug vehicle (unbuffered water) (20 animals total). Drug and MPTP+Drug groups received the test compounds for 6 days administered by oral gavage daily. On the seventh day, the saline and Drug groups received four intra-peritoneal (i.p.) injections of saline at 2 h intervals. The MPTP and MPTP+Drug groups received four intraperitoneal (i.p.) injections of MPTP·HCl (20 mg/kg free base) at 2 hr intervals. After the MPTP injection day, mice were treated for an additional 6 days with saline or an ATK inhibitor of the present invention. Mice in the saline and MPTP only groups received saline vehicle while the Drug and MPTP+Drug groups received an additional week of drug treatment. On the 14th day, mice were given a pole test, then sacrificed. Brain samples were processed for analysis of biogenic amine concentrations, including dopamine (DA), by high-performance liquid chromatography with electrochemical detection (HPLC-ECD). Loss of DA and its metabolites in the striatum is a consistently reliable indication of loss of DA neurons in the SNpc.

[3] = Pharmacokinetic parameters in Sprague-Dawley rats; set-up: AUC(0-t): concentration or dose not given beside the values; conditions: rat, in vivo
Description: Various pharmacokinetic parameters of the compounds described herein were measured in Sprague-Dawley rats.

A53T synuclein mice = assay: Functional rescue in mutated alpha-synuclein model; format: in vivo; conditions: A53T mutant alpha-synuclein mice
Text: The A53T mutant of alpha-synuclein is a clinically identified mutation that leads to hyper aggregation of alpha-synuclein in mice, and recapitulates the symptoms of Parkinson's disease such as dopaminergic neuron loss.
This effect is believed to be due to the compound blocking formation of the toxic form of A53T-alpha-synuclein by inhibiting c-Abl.

[4] = test system: Mice injected with pre-formed alpha-synuclein fibrils; assay: Functional rescue in alpha-synuclein fibril model; format: in vivo
Text: Injection of pre-formed alpha-synuclein fibrils is known to induce Parkinson's-like disease in mice. […] This effect is believes to be due to the compound blocking the formation of toxic pre-formed-fibril alpha synuclein by inhibiting c-Abl.

YES = YES (Homo sapiens, UniProt P07947); assay: Inhibition profile at 500 nM: YES; format: biochemical; conditions: 500 nM test compound; Table 2; read-out: Percent inhibition YES
Description: as §1

JNK1 = JNK1 (Homo sapiens, UniProt P45983); assay: Inhibition profile at 500 nM: JNK1; format: biochemical; conditions: 500 nM test compound; Table 2; read-out: Percent inhibition JNK1
Description: as §1

CMT = assay: Inhibition profile at 500 nM: CMT; format: biochemical; conditions: 500 nM test compound; Table 2
Description: as §1

[5] = test system: animal models of Parkinson's Disease; conditions: literature (J. Neurosci. 31(1); Scientific Reports 4:4874); cited from earlier work
mice treated with MPTP [6] = conditions: known ATK inhibitors, background statement; cited from earlier work

Chain of ARG/Abl2 (P42684 whole entry): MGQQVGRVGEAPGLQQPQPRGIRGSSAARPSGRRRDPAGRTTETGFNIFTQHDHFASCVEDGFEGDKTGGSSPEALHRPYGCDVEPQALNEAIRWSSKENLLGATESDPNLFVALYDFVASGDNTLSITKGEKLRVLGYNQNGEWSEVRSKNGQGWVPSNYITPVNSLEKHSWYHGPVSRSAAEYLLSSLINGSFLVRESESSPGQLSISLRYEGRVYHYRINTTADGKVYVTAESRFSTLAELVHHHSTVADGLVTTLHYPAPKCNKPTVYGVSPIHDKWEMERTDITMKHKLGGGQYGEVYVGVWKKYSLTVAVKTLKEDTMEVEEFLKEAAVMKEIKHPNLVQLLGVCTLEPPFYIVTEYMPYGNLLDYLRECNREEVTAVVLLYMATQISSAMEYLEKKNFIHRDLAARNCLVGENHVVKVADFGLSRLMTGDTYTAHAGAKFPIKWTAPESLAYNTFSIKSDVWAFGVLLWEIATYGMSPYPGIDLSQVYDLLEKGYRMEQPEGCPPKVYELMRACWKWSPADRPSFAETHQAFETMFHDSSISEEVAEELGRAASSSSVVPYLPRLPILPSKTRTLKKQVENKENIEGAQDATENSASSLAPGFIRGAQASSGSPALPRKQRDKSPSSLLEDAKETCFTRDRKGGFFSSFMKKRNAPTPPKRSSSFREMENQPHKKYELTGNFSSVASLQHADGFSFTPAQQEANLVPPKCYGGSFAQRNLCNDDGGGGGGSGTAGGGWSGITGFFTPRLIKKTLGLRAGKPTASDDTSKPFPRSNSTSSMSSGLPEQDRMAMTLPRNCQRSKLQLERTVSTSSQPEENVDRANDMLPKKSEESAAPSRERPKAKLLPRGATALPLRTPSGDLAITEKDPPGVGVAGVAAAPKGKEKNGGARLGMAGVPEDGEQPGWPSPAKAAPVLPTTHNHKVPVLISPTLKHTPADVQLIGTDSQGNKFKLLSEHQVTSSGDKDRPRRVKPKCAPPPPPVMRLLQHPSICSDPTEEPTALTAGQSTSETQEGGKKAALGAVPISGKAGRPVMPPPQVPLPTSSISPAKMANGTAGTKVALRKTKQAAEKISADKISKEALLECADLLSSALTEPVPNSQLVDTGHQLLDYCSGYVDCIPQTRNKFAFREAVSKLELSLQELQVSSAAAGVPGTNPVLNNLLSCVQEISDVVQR

SMILES: Cc1ccc(NC(=O)c2ccc(CN3CCN(C)CC3)cc2)cc1Nc1nccc(-c2cncc(-c3ccn[nH]3)c2)n1 [Compound 107]
inhibition at 0.5 µM (ARG/Abl2; Table 1, read-out: Percent inhibition ARG/Abl2): 87% | inhibition at 0.5 µM (SRC; Table 1): 28% | inhibition at 0.5 µM (FGR; Table 1): 82% | inhibition at 0.5 µM (FLT3; Table 1): 51% | inhibition at 0.5 µM (JNK2; Table 1): 1.7% | inhibition at 0.5 µM (PDGFRb; Table 1): 101% | inhibition at 0.5 µM (FYN; Table 1): 69% | inhibition at 0.5 µM (KIT): 99% | inhibition at 0.5 µM (ABL): 91% | inhibition at 0.5 µM (LCK; Table 1): 95% | inhibition at 0.5 µM (LYNA; Table 1): 93% | inhibition at 0.5 µM (FES; Table 1): 28% | inhibition at 0.5 µM (PDGFRa; Table 1): 59%

SMILES: Cc1ccc(NC(=O)c2ccc(CN3CCN(C)CC3)cc2)cc1Nc1nccc(-c2cncc(-c3oncc3C)c2)n1 [Compound 809]
half-life [1]: 0.364 h | dopaminergic neuron loss in A53T synuclein mice (A53T synuclein mice): fail to display the characteristics of dopaminergic neuron loss | fraction unbound (Serum protein binding): 0.143 | dopamine levels (protection of dopamine-secreting neurons) (mice treated with MPTP [2]): protected dopamine-secreting neurons from degeneration | pole test latency (mice treated with MPTP [2]): recovered to a near-normal latency time | AUC(0-t) [3]: 1060 ng·h/mL | Cmax [3]: 170 ng/mL | Tmax [3]: 4 h | Vd [3]: 7.2 L/kg | bioavailability [3]: 24% | clearance [3]: 45 mL/min/kg | half-life [3]: 2.2 h | Parkinson's-like disease after pre-formed alpha-synuclein fibrils [4]: fail to exhibit Parkinson's like disease

SMILES: Cc1cn(-c2cc(NC(=O)c3ccc(C)c(Nc4nccc(-c5cccnc5)n4)c3)cc(C(F)(F)F)c2)cn1 [nilotinib]
effectiveness in animal models of Parkinson's Disease [5]: appear effective | neuroprotection in the acute MPTP-induced model of PD (mice treated with MPTP [6]): provide neuroprotection

Now from value to molecule, other results behind:

half-life [1]: 0.292 h | fraction unbound (Serum protein binding): 0.141 | AUC(0-t) [3]: 1650 ± 1080 ng·h/mL | Cmax [3]: 225 ± 83.8 ng/mL | Tmax [3]: 5.3 ± 1.2 h | Vd [3]: 6.5 ± 0.96 L/kg | bioavailability [3]: 32% | clearance [3]: 33.3 mL/min/kg | half-life [3]: 3.1 h
SMILES: Cc1cc(-c2cncc(-c3ccnc(Nc4cc(NC(=O)c5ccc(CN6CCN(C)CC6)cc5)ccc4C)n3)c2)on1 [Compound 207]
dopamine levels (protection of dopamine-secreting neurons) (mice treated with MPTP [2]): protected dopamine-secreting neurons from degeneration | pole test latency (mice treated with MPTP [2]): recovered to a near-normal latency time

inhibition at 0.5 µM (ARG/Abl2; Table 2, read-out: Percent inhibition Abl2): 89% | inhibition at 0.5 µM (SRC; Table 2): 45% | inhibition at 0.5 µM (FGR; Table 2): 81% | inhibition at 0.5 µM (FLT3; Table 2): 61% | inhibition at 0.5 µM (YES): 63% | inhibition at 0.5 µM (JNK2; Table 2): 30% | inhibition at 0.5 µM (PDGFRb; Table 2): 98% | inhibition at 0.5 µM (JNK1): 35% | inhibition at 0.5 µM (FYN; Table 2): 90% | inhibition at 0.5 µM (LCK; Table 2): 97% | inhibition at 0.5 µM (LYNA; Table 2): 108% | inhibition at 0.5 µM (FES; Table 2): 19% | inhibition at 0.5 µM (PDGFRa; Table 2): 99%
SMILES: Cc1ccc(NC(=O)c2ccc(CN3CCN(C)CC3)cc2)cc1Nc1nccc(-c2cncc(-c3cnn(C)c3)c2)n1 [Compound 8300]
Percent inhibition CMT (CMT): 88%
